Measurements as given in US20150017665A1, “Peptides and Methods for Detecting MPO-ANCA” (The University of North Carolina at Chapel Hill, priority 2012, published 2015).

Assays:
[1] = tested on: MPO-ANCA; assay: Epitope excision MALDI-TOF/TOF MS of patient and healthy Ig with native MPO; format: binding; parameters: key: HC: Healthy control; Active disease; Remission; conditions: human Ig
Excerpt: Total immunoglobulin (IgG) was purified from sera using protein A/G PLUS-Agarose Reagent according to commercial protocol (Santa Cruz Biotechnology). Purified IgG was immobilized on CNBr-activated Sepharose 4B (GE Healthcare) in compact reaction columns (CRC, USB Corporation) and exposed to native MPO protein (MPO, Elastin Products Co, Inc) followed by digestion with sequencing grade TPCK-treated trypsin (Worthington). MPO-peptides remaining bound to IgG after digestion were eluted with 0.1% trifluoro acetic acid and analyzed on a 4800 Plus Matrix-Assisted Laser Desorption Ionization Time of Flight Mass Spectrometry (MALDI TOF/TOF MS/MS) in conjunction with ProteinPilot software (AB SCIEX).
To identify epitopes of low titer autoantibodies, ^18O labeling (Mirza et al., J. Proteome Res. 7:3042 (2008)) was used to differentiate between the signal and the noise in the MS and MSMS spectra using the 4 Da shifts between the corresponding spectra of labeled and non-labeled peptides. Mass spectrometry analysis for epitopes recognized by MPO autoantibodies from healthy individuals, and for detection of low ANCA titers in remission samples required the use of isotope H2^18O to increase sensitivity (Cambridge Isotope Laboratories). Samples from healthy individuals (n=10) and MPO-ANCA patients in clinical remission (n=35) were processed in the presence of H2^18O. Incorporation of H2^18O on the carboxyl terminus of each proteolytic fragment of MPO during tryptic digestion, trypsin buffer was made with the isotope H2^18O as a diluent.
MPO-ANCA positive patients (n=45) from the University of North Carolina cohort (UNC) were analyzed in the initial studies. Demographics of the cohort (Table 2) indicate a predominantly Caucasian group. Approximately 40% are diagnosed with microscopic polyangiitis (MPA), 40% with renal-limited disease and 20% are diagnosed with granulomatosis with polyangiitis (GPA). To compare epitope specificities related to disease activity, longitudinal samples were analyzed to include active disease (n=52) and remission (n=35) from the UNC cohort (Tables 3 and 4). Ten healthy subjects were included in the analyses. Purified immunoglobulin (Ig) from sera samples was subjected to analysis by epitope excision MALDI-TOF/TOF mass spectrometry (depicted in FIG. 3A) to identify epitope profiles of autoantibodies reactive with MPO. In order to epitope map low titer anti-MPO antibodies from healthy subjects and from patients in disease remission, an approach was designed using the ^16O-to-^18O exchange technique, an adaptation of a proteomics-based quantification method (Mirza et al., J. Proteome Res. 7:3042 (2008)). Incorporation of H2^18O on the carboxyl termini of proteolytic fragments produces a 4 Da mass shift in the MS spectra, decipherable from background noise. MPO epitopes unique to Ig from patients with active disease were designated ‘exclusive to active disease’; epitopes identified in remission samples were designated ‘persistent during remission’; and those present in samples from healthy subjects were designated asymptomatic or ‘natural’.

[2] = tested on: anti-MPO antibodies of immunized DR2 Tg mice; assay: Epitope excision MS of IgG from immunized DR2 Tg mice with recombinant mouse MPO; format: binding; conditions: DR2 Tg mice immunized with MPO aa442-460
Procedure: Mass spectrometry analysis of ANCA-negative IgG and mouse IgG samples were conducted as above. With the exception of protein substrate, immobilized ANCA-negative IgG were exposed to whole leukocyte lysate preparation from a healthy donor and mouse IgG to recombinant mouse MPO (R&D Systems).
As HLA-MHC II help shape the B and T cell repertoires, and consequently the response to foreign and self-antigens, we wanted to define the epitope specificity of the anti-MPO autoantibodies that could be induced experimentally using DR2 Tg mice. In this way, we could assess development of the anti-MPO antibody response after immunization of a single epitope in the context of a human MHC II. IgG from sera of immunized mice was profiled for anti-MPO epitope specificity using epitope excision MS. DR2 Tg mice developed antibodies targeting the human B cell epitope aa447-459 which is within a conserved region of both murine and human MPO. Unpredictably, immunized DR2 Tg mice initiated a polyclonal response producing autoantibodies against the entire MPO molecule. The epitope profile was astonishingly similar to that of the MPO-ANCA human profile (Table 6), indicative of the critical nature of this epitope.

[3] = tested on: MPO-ANCA; assay: Peptide ELISA with total IgG (Chapel Hill and Groningen); format: binding, human
Procedure: A total of 195 IgG samples were tested by native MPO or peptide ELISA. Samples included those from healthy controls (n=59), active disease (n=80) and remission patients (n=56). Total IgG was added to wells (2 μg/well) precoated with 1-2 μg peptide (UNC-CH peptide synthesis core). Goat anti-human with alkaline phosphatase conjugate secondary antibody specific to IgG (H+L) (Millipore, Billerica, Mass.) (1:10,000) was added and detected using 1-Step PNPP substrate (Thermo Scientific) and read at λ=405 nm after 30 min. Identical peptides were used in ELISAs at both locations; all other substrates used to test NL cohort samples by ELISAs were prepared in Groningen. Total IgG (1:500˜2 mg/well) was added to precoated wells blocked with 1% BSA. Secondary antibody, goat anti-human conjugated with alkaline phosphatase (A5403; Sigma-Aldrich) (1:5000), was added and detected using p-nitrophenyl-phosphate disodium substrate.

Substance | Found in samples: Healthy control, Active disease, or Remission, (HC, A, R) ([1]; Table 1) | Found in samples: Healthy control, Active disease, or Remission, (HC, A, R) ([1]; Table 6) | Epitopes found in immunized mice [2] | ELISA reactivity in clinical remission ([3]; UNC and NL cohorts, remission samples) | ELISA reactivity with Ig from active disease samples ([3]; active disease samples)
FWWENEGVFSMQQR (listed as Homo sapiens) [aa678-691] | A, R, HC | A, R, HC |  |  | 
NNIFMSNTYPR (listed as Homo sapiens) [aa715-725] | A | A | NNIFMSNTYPR |  | 
QNQIAVDEIR (listed as Homo sapiens) [aa560-571] | A, R | A, R |  |  | 
QALAQISLPR (listed as Homo sapiens) [aa692-701] | A ,R | A, R |  |  | 
WLPAEYEDGFSLPYG (listed as Homo sapiens) [aa198-219] | A | A |  |  | 
FPTDQLTPDQER (listed as Homo sapiens) [aa237-248] | A, R, HC | A, R, HC |  |  | 
RSPTLGASNR (listed as Homo sapiens) [aa184-193] | A | A | RSPTLGASNR |  | 
IANVFTNAFR (listed as Homo sapiens) [aa490-499] | A | A | IANVFTNAFR |  | 
NGFPVALAR (listed as Homo sapiens) [aa220-228] | A | A |  |  | 
WDGER (listed as Homo sapiens) [aa437-441] | A, R | A, R |  |  | 
NQINALTSFVDASMV (listed as Homo sapiens) [aa328-351] | A | A |  |  | 
VVLEGGIDPILR (listed as Homo sapiens) [aa537-548] | A | A | VVLEGGIDPILR |  | 
LFEQVMR (listed as Homo sapiens) [aa572-578] | A, R, HC | A, R, HC | LFEQVMR |  | 
DHGLPGYNAWR (listed as Homo sapiens) [aa593-603] | A, R, HC | A, R, HC | DHGLPGYNAWR |  | 
YQPMEPNPR (listed as Homo sapiens) [aa516-524] | A, R, HC | A, R, HC |  | reactivity was found in remission samples in both cohorts | reactive with Ig from active disease samples
IGLDLPALNMQR (listed as Homo sapiens) [aa579-590] | A, R, HC | A, R, HC | IGLDLPALNMQR |  | 
VGPLLACI (listed as Homo sapiens) [aa657-664] | A | A |  |  | 
KYLPTYR (listed as Homo sapiens) [aa474-480] | A ,R | A, R |  |  | 
RDYLPLVLGPTAMR (listed as Homo sapiens) [aa460-473] | A, R, HC | A, R, HC |  |  | 
VFFASWR (listed as Homo sapiens) [aa530-536] | A, R, HC | A, R, HC | VFFASWR |  | 
IPCFLAGDTR (listed as Homo sapiens) [aa396-405] | R | R | IPCFLAGDMR |  | 
LYQEAR (listed as Homo sapiens) [aa442-447] | A | A |  |  | 
FQDNGR (listed as Homo sapiens) [aa369-374] | A | A |  |  | 
FCGLPQPETVGQLGT (listed as Homo sapiens) [aa605-622] | A | A |  |  | 
